{"source": "paper PMC8222276", "about": "(Communications Biology, 2021)", "key": {"[1]": {"test_system": "HUVECs", "test": "cell proliferation (72 h) of HUVECs", "type": "cell-based, human", "settings": "HUVEC", "experimental": "(§1) Data are analysed using a three-parameter non-linear regression curve or the operational model of receptor agonism. g–h Signalling bias plots were calculated as ∆Log(τ/KA) (g) or ∆∆Log(τ/KA) (h) for each agonist and for each signalling pathway. […] Solid arrows indicate known pathways. Dashed arrows represent possible pathways.\n(§2) Both endothelial cell lines and HCMs were seeded at a density of 2500 cells/well in a clear flat bottom 96-well plate (Corning, UK) and incubated at 37 °C in 5% CO2. After 24 h, cells were exposed to test compounds or vehicle, in complete endothelial cell growth media (HUVECs) or myocyte growth media (HCMs). Cells were incubated for a further 72 h at 37 °C in 5% CO2. After 72 h incubation, 5 μl of Cell Counting Kit–8 (CCK-8, Sigma, UK) was added to each well and cells were then incubated for another 2 h at 37 °C in 5% CO2 and in the dark[61]. The absorbance of each well was measured using a Mithras LB940 microplate reader with an excitation of 450 nm. The absorbance is directly proportional to the number of viable cells. Cell proliferation was calculated as a percentage of number of cells treated with vehicle alone.\n(§3) All sample sizes were determined, and data analysed, in accordance with the guidelines described by Curtis M et al.[65]. All experiments were appropriately controlled using ‘system pathway’ agonists. If any of these pathway controls generated inappropriate responses, then the entire data set was removed from analysis. […] Data analysis for cAMP accumulation, Ca^2+i mobilisation, NO accumulation, pERK1/2 activation, and cell proliferation assays were performed in GraphPad Prism 8.4 (GraphPad Software, San Diego). Data were fitted to obtain concentration–response curves using either the three-parameter logistic equation using to obtain values of Emax and pEC50 or the operational model of agonism. Statistical differences were analysed using one-way ANOVA followed by Dunnett’s post-hoc (for comparisons amongst more than two groups) or unpaired Student’s t test with Welch’s correction (for comparison between two groups). To account for the day-to-day variation experienced from the cultured cells, we used the maximal level of cAMP accumulation from cells in response to 100 μM forskolin stimulation was used as a reference, 10 μM ionomycin for Ca^2+i assays, 10 μM phorbol 12-myristate 13-acetate (PMA) for pERK1/2 activation, 10 μM acetylcholine for NO production and 10 μM VEGF for cell proliferation. […] Where appropriate the operational model for receptor agonism[27] was used to obtain efficacy (τ) and equilibrium disassociation constant (KA) values. In both cases, this normalisation removes the variation due to differences in days but retains the variance for control values. The means of individual experiments were combined to generate the curves shown. Having obtained values for τ and KA these were then used to quantify signalling bias as the change in Log(τ/KA)[19],[28]. Error for this composite measure was propagated by applying Eq. 1.1 PooledSEM=(SEMA)^2+(SEMB)^2 Where, SEMA and SEMB are the standard error of measurement A and B."}, "[2]": {"biological_target": "T1, AM1 receptor (CLR-RAMP2) in HUAECs (Homo sapiens, UniProt O60895+Q16602)", "T1 construct": "host or cells: primary HUAECs", "T1 sequence (Q16602 23-461)": "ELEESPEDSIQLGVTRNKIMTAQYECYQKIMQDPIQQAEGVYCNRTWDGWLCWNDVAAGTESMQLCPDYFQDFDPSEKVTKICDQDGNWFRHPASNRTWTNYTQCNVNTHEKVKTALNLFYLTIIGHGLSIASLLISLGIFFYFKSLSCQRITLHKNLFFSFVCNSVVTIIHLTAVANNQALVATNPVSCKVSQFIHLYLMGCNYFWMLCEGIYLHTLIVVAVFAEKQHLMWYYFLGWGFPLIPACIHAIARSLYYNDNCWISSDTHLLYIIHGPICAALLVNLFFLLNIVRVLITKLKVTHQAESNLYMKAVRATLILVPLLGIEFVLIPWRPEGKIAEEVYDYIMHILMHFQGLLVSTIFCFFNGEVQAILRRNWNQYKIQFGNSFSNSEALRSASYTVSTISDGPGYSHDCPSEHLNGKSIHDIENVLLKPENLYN", "T1 sequence (O60895 43-175)": "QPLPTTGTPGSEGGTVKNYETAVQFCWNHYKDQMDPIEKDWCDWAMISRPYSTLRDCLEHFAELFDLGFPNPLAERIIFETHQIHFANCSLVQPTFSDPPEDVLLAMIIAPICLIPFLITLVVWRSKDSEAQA", "test": "ERK1/2 phosphorylation in HUAECs", "type": "cell-based", "experimental": "(§4) Primary cells were grown in 6 well plates, on the day of the experiment media was replaced with serum free media 4 h prior to cell harvesting. Tyrpsin-EDTA was used to dissociate the cells and they were collected by centrifugation, counted and re-suspended HBSS/BSA (0.1%). Ligands were also diluted in HBSS/BSA. Cells were then plated on 384 well plates in 8 μl aliquots at a density of 20,000 cells/well. Next, ligands were added (4 μl) for 5 min stimulation at room temperature. Cells were then lysed as per to the manufacturer’s instructions with 4 μl of lysis buffer (Cisbio phosphor-ERK1/2 cellular assay kit, Invitrogen, UK) for 30 min shaking at room temperature. The 2 specific antibodies; were pre-mixed in a 1:1 ratio. 4 μl of this was added to each well and the plate incubated for a further 2 h.\nas §3, with “B. […]” for “B.”"}, "[3]": {"test_system": "RAMP1-HUVECs", "test": "cell proliferation (72 h) of RAMP1-HUVECs", "type": "cell-based, human", "settings": "RAMP1-HUVEC", "experimental": "Data are analysed using a three-parameter non-linear regression curve or the operational model of receptor agonism. g–h Signalling bias plots were calculated as ∆Log(τ/KA) (g) or ∆∆Log(τ/KA) (h) for each agonist and for each signalling pathway. […] All data represent mean ± SEM for n repeats.\nas §2\nAll sample sizes were determined, and data analysed, in accordance with the guidelines described by Curtis M et al.[65]. All experiments were appropriately controlled using ‘system pathway’ agonists. If any of these pathway controls generated inappropriate responses, then the entire data set was removed from analysis."}, "[4]": {"biological_target": "T2, AM1 receptor (CLR-RAMP2) in HUVECs (Homo sapiens, UniProt O60895+Q16602)", "T2 construct": "HUVECs specifically express the AM1 receptor alone; host or cells: primary HUVECs", "T2 sequence (Q16602 23-461)": "as the sequence (Q16602 23-461) above", "T2 sequence (O60895 43-175)": "as the sequence (O60895 43-175) above", "test": "ERK1/2 phosphorylation in HUVECs", "type": "cell-based", "experimental": "as §1\nData are analysed using a three-parameter non-linear regression curve. All data represent mean ± SEM of n independent experiments. Statistical significance determined compared to control using an unpaired Student’s t test with Welch’s correction (*p < 0.05; **p < 0.01; ***p < 0.001).\nas §4, with “h. […] Antagonist studies were performed in the same way through co-stimulation with PTX (200 ng/ml), Rp-8-Br-cAMPS (100 μM), YM-254890 (100 nM), or ESI-09 (100 μM) as appropriate alongside control-treated cell.” for “h.”\nas §3"}, "[5]": {"settings": "proliferation, 72 h, CCK-8, mean ± SEM"}, "[6]": {"settings": "proliferation, 72 h, mean ± SEM of 3-6 data sets"}, "[7]": {"settings": "proliferation, operational model, mean ± SEM"}, "[8]": {"settings": "pERK1/2, HUAEC, operational model, mean ± SEM"}, "[9]": {"settings": "pERK1/2, HUVEC, operational model, mean ± SEM"}}}
{"smiles": "CSCC[C@H](NC(=O)[C@H](CC(C)C)NC(=O)[C@H](CCC(N)=O)NC(=O)[C@H](Cc1c[nH]c2ccccc12)NC(=O)[C@H](CC(C)C)NC(=O)[C@H](CCCNC(=N)N)NC(=O)[C@H](Cc1c[nH]cn1)NC(=O)[C@H](CO)NC(=O)[C@H](CC(C)C)NC(=O)[C@H](CC(N)=O)NC(=O)[C@H](CCC(N)=O)NC(=O)[C@@H](NC(=O)[C@H](CCC(N)=O)NC(=O)[C@@H]1CSSC[C@H](NC(=O)CNC(=O)[C@@H](NC(=O)[C@H](CCCNC(=N)N)NC(=O)[C@H](CC(C)C)NC(=O)[C@H](CC(C)C)NC(=O)[C@H](CCC(N)=O)NC(=O)[C@H](C)NC(=O)[C@H](CCC(N)=O)NC(=O)[C@@H](N)[C@@H](C)O)C(C)C)C(=O)N[C@@H](C(C)C)C(=O)N[C@@H](CC(C)C)C(=O)NCC(=O)N[C@@H]([C@@H](C)O)C(=O)N1)C(C)C)C(=O)NCC(=O)N1CCC[C@H]1C(=O)N[C@@H](C)C(=O)NCC(=O)N[C@@H](CCCNC(=N)N)C(=O)N[C@@H](CCC(N)=O)C(=O)N[C@@H](CC(=O)O)C(=O)N[C@@H](CO)C(=O)N[C@@H](C)C(=O)N1CCC[C@H]1C(=O)N[C@H](C(=O)N[C@@H](CC(=O)O)C(=O)N1CCC[C@H]1C(=O)N[C@@H](CO)C(=O)N[C@@H](CO)C(=O)N1CCC[C@H]1C(=O)N[C@@H](Cc1c[nH]cn1)C(=O)N[C@@H](CO)C(=O)N[C@@H](Cc1ccc(O)cc1)C(N)=O)C(C)C", "note": "[AM2, adrenomedullin 2]", "values": [{"measurement": "Transducer coefficient Log(τ/KA)", "setting": "[1]; Growth, calculated from Table S1", "result": "5.74±0.92"}, {"measurement": "Emax", "setting": "[1]; [5]", "result": "103.74±1.43", "unit": "%"}, {"measurement": "pEC50", "setting": "[1]; [6]", "result": "7.06±0.9"}, {"measurement": "logτ", "setting": "[1]; [7]", "result": "-1.29±0.20"}, {"measurement": "pKA", "setting": "[1]; [7]", "result": "7.03±0.90"}, {"measurement": "Emax", "setting": "[2]", "result": "17.6 ± 2.44", "unit": "%"}, {"measurement": "Transducer coefficient Log(τ/KA)", "setting": "[2]; pERK1/2, HUAEC, calculated from Table S1", "result": "4.76±0.35"}, {"measurement": "logτ", "setting": "[2]; [8]", "result": "-0.67±0.12"}, {"measurement": "pKA", "setting": "[2]; [8]", "result": "5.43±0.33"}, {"measurement": "Transducer coefficient Log(τ/KA)", "setting": "[3]; Growth, calculated from Table S2", "result": "5.73±0.56"}, {"measurement": "promotion of growth", "setting": "[3]; 72 h", "result": "could also promote growth"}, {"measurement": "Emax", "setting": "[3]; [5]", "result": "201.29±11.45", "unit": "%"}, {"measurement": "pEC50", "setting": "[3]; [6]", "result": "5.85±0.17"}, {"measurement": "logτ", "setting": "[3]; [7]", "result": "0.71±0.34"}, {"measurement": "pKA", "setting": "[3]; [7]", "result": "5.02±0.44"}, {"measurement": "Emax", "setting": "[4]; HUVEC", "result": "33.3 ± 4.59", "unit": "%"}, {"measurement": "mechanism of ERK1/2 stimulation", "setting": "[4]; HUVEC", "result": "mediated in a Gi/o-dependent manner"}, {"measurement": "effect of PTX on ERK1/2 phosphorylation", "setting": "[4]; HUVEC, PTX", "result": "suppression of ERK1/2 phosphorylation"}, {"measurement": "Transducer coefficient Log(τ/KA)", "setting": "[4]; pERK1/2, HUVEC, calculated from Table S1", "result": "5.06±0.21"}, {"measurement": "logτ", "setting": "[4]; [9]", "result": "-0.35±0.08"}, {"measurement": "pKA", "setting": "[4]; [9]", "result": "5.41±0.19"}]}
